From patent US10611740B2, “Aryl dihydro-2H-benzo[b][1,4]oxazine sulfonamide and related compounds for use as agonists of RORγ and the treatment of disease” (Lycera Corporation, priority 2015, dated 2020)

Key:
[1] = biological target: T1, RORγ-LBD (Homo sapiens, UniProt P51449); assay: RORγ-Ligand Binding Domain (LBD) TR-FRET Assay; format: biochemical;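 for TR-FRET Assay Max Response: 665/615 nm ratio relative to signal without ursolic acid or compound set at 100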
T1 construct: made in house; host or cells: SF9 cells (baculovirus)
T1 sequence (P51449 269-508 limits assumed): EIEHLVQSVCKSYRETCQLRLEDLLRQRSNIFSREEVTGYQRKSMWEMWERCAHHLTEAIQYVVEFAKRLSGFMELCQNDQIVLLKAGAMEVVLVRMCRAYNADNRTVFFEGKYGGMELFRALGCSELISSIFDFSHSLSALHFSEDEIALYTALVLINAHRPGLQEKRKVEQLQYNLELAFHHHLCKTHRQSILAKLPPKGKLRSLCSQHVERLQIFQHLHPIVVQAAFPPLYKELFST
Method in brief: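 His-tagged RORγ-LBD from SF9 baculovirus lysate, ~3 nM final, in 50 mM Tris pH 7.0, 50 mM KCl, 1 mM EDTA, 0.1 mM DTT, 0.01% BSA. Biotinylated SRC1 LXXLL peptide at 200 nM final with 2 μM ursolic acid; TR-FRET read-out, 1% DMSO final.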

[2] = biological target: T2, Gal4-RORγ-LBD (Homo sapiens, UniProt P51449); assay: Gal4-RORγ Luciferase Reporter Assay in HEK-293T Cells; format: cell-based; settings: HEK-293 cells
T2 construct: expressed in transfected cells; host or cells: HEK-293 cells (pcDNA3.1neo plasmid)
T2 sequence (P51449 269-508 limits assumed): T1 sequence (P51449 269-508 limits assumed)
Method in brief: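 HEK-293 cells were transiently co-transfected with Gal4-RORγ-LBD and pGL4.31 Gal4-luciferase, with ursolic acid added at 2 μM final. Compounds were incubated overnight at 37° C. in 0.2% DMSO and luminescence read with One-Glo. Max Response is the upper plateau of a 4-parameter logistic fit, with signal lacking ursolic acid or compound set to 100.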

[3] = luciferase reporter, with 2 μM ursolic acid

Row | Structure (SMILES) | EC50 [1] | TR-FRET Assay Max Response [1] | EC50 ([2]; 2 μM ursolic acid) | Gal4-RORγ Assay Max Response ([2]; 2 μM ursolic acid) | EC50 [2, 3] | Gal4-RORγ Assay Max Response [2, 3]
1 | COc1cc(S(=O)(=O)N2C[C@H](CNS(=O)(=O)N(C)CCO)Oc3ccc(-c4cc(F)ccc4F)cc32)ccc1F [Compound 45D, ([[(2S)-6-(2,5-difluorophenyl)-4-[[4-fluoro-3-methoxy-benzene]-sulfonyl]-3,4-dihydro-2H-1,4-benzoxazin-2-yl]methyl]sulfamoyl)-(N-methyl-N-2-hydroxyethyl)-amine] | < 500 nM | *** (The symbol “***” indicates a value in the range of greater than 150 to 200) | < 500 nM | * (The symbol “*” indicates a value in the range of 25 to 90) | – | –
2 | COc1cc(S(=O)(=O)N2C[C@H](CNS(=O)(=O)N3CC[C@H](O)C3)Oc3ccc(-c4cc(F)ccc4F)cc32)ccc1F [Compound 45E, (S)-N-(((S)-6-(2,5-difluoro-phenyl)-4-((4-fluoro-3-methoxyphenyl)sulfonyl)-3,4-dihydro-2H-benzo[b][1,4]oxazin-2-yl)methyl)-3-hydroxy-pyrrolidine-1-sulfonamide] | < 500 nM | *** (The symbol “***” indicates a value in the range of greater than 150 to 200) | < 500 nM | ** (The symbol “**” indicates a value in the range of greater than 90 to 150) | – | –
3 | Cc1c(F)cc(-c2ccc3c(c2)N(S(=O)(=O)c2cccc(C(F)(F)F)c2)C[C@H](CC(C)C(=O)O)O3)c(Cl)c1F (stereo partly drawn) [Compound 46A, 3-((S)-6-(2-chloro-3,5-difluoro-4-methylphenyl)-4-((3-(trifluoro-methyl)phenyl)sulfonyl)-3,4-dihydro-2H-benzo[b][1,4]oxazin-2-yl)-2-methylpropanoic acid] | < 500 nM | *** (The symbol “***” indicates a value in the range of greater than 150 to 200) | – | – | 500 to 5000 nM | ** (The symbol “**” indicates a value in the range of greater than 90 to 150)
4 | C[C@H](C[C@H]1CN(S(=O)(=O)c2cccc(C(F)(F)F)c2)c2cc(-c3cc(F)cc(F)c3Cl)ccc2O1)C(=O)O [Compound 46B, (R)-3-((S)-6-(2-chloro-3,5-difluorophenyl)-4-((3-(trifluoro-methyl)phenyl)sulfonyl)-3,4-dihydro-2H-benzo[b][1,4]oxazin-2-yl)-2-methylpropanoic acid] | < 500 nM | *** (The symbol “***” indicates a value in the range of greater than 150 to 200) | – | – | < 500 nM | ** (The symbol “**” indicates a value in the range of greater than 90 to 150)
5 | C[C@@H](C[C@H]1CN(S(=O)(=O)c2cccc(C(F)(F)F)c2)c2cc(-c3cc(F)cc(F)c3Cl)ccc2O1)C(=O)O [Compound 46C, (S)-3-((S)-6-(2-chloro-3,5-difluorophenyl)-4-((3-(trifluoro-methyl)phenyl)sulfonyl)-3,4-dihydro-2H-benzo[b][1,4]oxazin-2-yl)-2-methylpropanoic acid] | < 500 nM | *** (The symbol “***” indicates a value in the range of greater than 150 to 200) | – | – | < 500 nM | ** (The symbol “**” indicates a value in the range of greater than 90 to 150)
6 | C[C@H](C[C@H]1CN(S(=O)(=O)c2cccc(C(F)(F)F)c2)c2cc(-c3cccc(Cl)c3F)ccc2O1)C(=O)O [Compound 46D, (R)-3-((S)-6-(3-chloro-2-fluoro-phenyl)-4-((3-(trifluoromethyl)-phenyl)sulfonyl)-3,4-dihydro-2H-benzo[b][1,4]oxazin-2-yl)-2-methylpropanoic acid] | < 500 nM | *** (The symbol “***” indicates a value in the range of greater than 150 to 200) | < 500 nM | ** (The symbol “**” indicates a value in the range of greater than 90 to 150) | – | –
7 | C[C@@H](C[C@H]1CN(S(=O)(=O)c2cccc(C(F)(F)F)c2)c2cc(-c3cccc(Cl)c3F)ccc2O1)C(=O)O [Compound 46E, (S)-3-((S)-6-(3-chloro-2-fluoro-phenyl)-4-((3-(trifluoromethyl)-phenyl)sulfonyl)-3,4-dihydro-2H-benzo[b][1,4]oxazin-2-yl)-2-methylpropanoic acid] | < 500 nM | ** (The symbol “**” indicates a value in the range of greater than 90 to 150) | 500 to 5000 nM | * (The symbol “*” indicates a value in the range of 25 to 90) | – | –
8 | CC[C@H](C[C@H]1CN(S(=O)(=O)c2cccc(C(F)(F)F)c2)c2cc(-c3cc(F)cc(F)c3Cl)ccc2O1)C(=O)O [Compound 46F, (R)-2-(((S)-6-(2-chloro-3,5-difluorophenyl)-4-((3-(trifluoro-methyl)phenyl)sulfonyl)-3,4-dihydro-2H-benzo[b][1,4]oxazin-2-yl)methyl)butanoic acid] | < 500 nM | *** (The symbol “***” indicates a value in the range of greater than 150 to 200) | 500 to 5000 nM | * (The symbol “*” indicates a value in the range of 25 to 90) | – | –
9 | CC[C@@H](C[C@H]1CN(S(=O)(=O)c2cccc(C(F)(F)F)c2)c2cc(-c3cc(F)cc(F)c3Cl)ccc2O1)C(=O)O [Compound 46G, (S)-2-(((S)-6-(2-chloro-3,5-difluorophenyl)-4-((3-(trifluoro-methyl)phenyl)sulfonyl)-3,4-dihydro-2H-benzo[b][1,4]oxazin-2-yl)methyl)butanoic acid] | < 500 nM | ** (The symbol “**” indicates a value in the range of greater than 90 to 150) | < 500 nM | ** (The symbol “**” indicates a value in the range of greater than 90 to 150) | – | –
10 | O=S(=O)(c1cccc(C(F)(F)F)c1)N1C[C@H](CC2(CO)COC2)Oc2ccc(-c3cc(F)cc(OC(F)F)c3)cc21 [Compound 49, (S)-(3-((6-(3-(difluoromethoxy)-5-fluorophenyl)-4-((3-(trifluoromethyl)phenyl)sulfonyl)-3,4-dihydro-2H-benzo[b][1,4]oxazin-2-yl)methyl)oxetan-3-yl)methanol] | < 500 nM | ** (The symbol “**” indicates a value in the range of greater than 90 to 150) | < 500 nM | ** (The symbol “**” indicates a value in the range of greater than 90 to 150) | – | –
11 | O=S(=O)(c1cccc(C(F)(F)F)c1)N1C[C@H](CC2(CO)COC2)Oc2ccc(-c3cc(F)cc(F)c3Cl)cc21 [Compound 51A, (S)-(3-((6-(2-chloro-3,5-difluoro-phenyl)-4-((3-(trifluoromethyl)-phenyl)sulfonyl)-3,4-dihydro-2H-benzo[b][1,4]oxazin-2-yl)methyl)oxetan-3-yl)methanol] | < 500 nM | ** (The symbol “**” indicates a value in the range of greater than 90 to 150) | < 500 nM | ** (The symbol “**” indicates a value in the range of greater than 90 to 150) | – | –
12 | O=C(O)C1(C[C@H]2CN(S(=O)(=O)c3cccc(C(F)(F)F)c3)c3cc(-c4cc(F)cc(F)c4Cl)ccc3O2)COC1 [Compound 51B, (S)-3-((6-(2-chloro-3,5-difluoro-phenyl)-4-((3-(trifluoromethyl)-phenyl)sulfonyl)-3,4-dihydro-2H-benzo[b][1,4]oxazin-2-yl)methyl)oxetane-3-carboxylic acid] | < 500 nM | *** (The symbol “***” indicates a value in the range of greater than 150 to 200) | < 500 nM | ** (The symbol “**” indicates a value in the range of greater than 90 to 150) | – | –
13 | COc1cc(F)cc(-c2ccc3c(c2)N(S(=O)(=O)c2cccc(C(F)(F)F)c2)C[C@H](CC2(C(=O)O)COC2)O3)c1F [Compound 51C, (S)-3-((6-(2,5-difluoro-3-methoxyphenyl)-4-((3-(trifluoromethyl)phenyl)sulfonyl)-3,4-dihydro-2H-benzo[b][1,4]oxazin-2-yl)methyl)oxetane-3-carboxylic acid] | < 500 nM | ** (The symbol “**” indicates a value in the range of greater than 90 to 150) | < 500 nM | ** (The symbol “**” indicates a value in the range of greater than 90 to 150) | – | –
14 | O=C(O)C1(C[C@H]2CN(S(=O)(=O)c3cccc(C4CC4)c3)c3cc(-c4cc(F)ccc4F)ccc3O2)COC1 [Compound 51E, (S)-3-((4-((3-cyclopropylphenyl)sulfonyl)-6-(2,5-difluorophenyl)-3,4-dihydro-2H-benzo[b][1,4]oxazin-2-yl)methyl)oxetane-3-carboxylic acid] | < 500 nM | *** (The symbol “***” indicates a value in the range of greater than 150 to 200) | > 10000 nM | *** (The symbol “***” indicates a value in the range of greater than 150 to 200) | – | –
